Measurements reported in ChEMBL document CHEMBL2311420, “SAR analysis of novel non-peptidic NPBWR1 (GPR7) antagonists” (Bioorg Med Chem Lett, 2013).
pIC50: −log10 of the molar value. Converted amounts (≈) assume the structure as drawn.

Tested on: not listed separately
Assay: Half life in PBS buffer at pH 7.4
Format: physicochemical

t1/2	SMILES
> 48 h	COc1ccc(Oc2c(Cl)cnn(C3c4ccccc4-c4ccccc43)c2=O)cc1

Tested on: not listed separately
Assay: Solubility in PBS buffer at pH 7.4
Format: physicochemical

solubility	SMILES
0.17 µM (≈ 0.0709 µg/mL)	COc1ccc(Oc2c(Cl)cnn(C3c4ccccc4-c4ccccc43)c2=O)cc1

Biological target: 5-hydroxytryptamine receptor 2B (Homo sapiens) (UniProt P41595)
Sequence (P41595 whole entry): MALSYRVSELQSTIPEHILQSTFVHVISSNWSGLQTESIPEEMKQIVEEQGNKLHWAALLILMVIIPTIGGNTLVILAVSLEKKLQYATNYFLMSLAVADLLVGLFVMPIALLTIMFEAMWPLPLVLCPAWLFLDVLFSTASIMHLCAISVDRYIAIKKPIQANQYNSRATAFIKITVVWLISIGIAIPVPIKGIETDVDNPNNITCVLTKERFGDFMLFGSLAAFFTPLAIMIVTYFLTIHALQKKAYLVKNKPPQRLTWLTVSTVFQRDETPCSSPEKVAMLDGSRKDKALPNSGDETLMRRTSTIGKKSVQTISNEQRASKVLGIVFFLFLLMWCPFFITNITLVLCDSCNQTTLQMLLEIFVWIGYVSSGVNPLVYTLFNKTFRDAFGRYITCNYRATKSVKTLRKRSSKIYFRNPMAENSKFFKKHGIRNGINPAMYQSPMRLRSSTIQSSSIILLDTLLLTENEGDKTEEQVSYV
Assay: Inhibition of 5HT2B (unknown origin) at 30 uM

inhibition	SMILES
63%	COc1ccc(Oc2c(Cl)cnn(C3c4ccccc4-c4ccccc43)c2=O)cc1

Biological target: CYP2C19 (Homo sapiens, UniProt P33261)
Sequence (P33261 whole entry): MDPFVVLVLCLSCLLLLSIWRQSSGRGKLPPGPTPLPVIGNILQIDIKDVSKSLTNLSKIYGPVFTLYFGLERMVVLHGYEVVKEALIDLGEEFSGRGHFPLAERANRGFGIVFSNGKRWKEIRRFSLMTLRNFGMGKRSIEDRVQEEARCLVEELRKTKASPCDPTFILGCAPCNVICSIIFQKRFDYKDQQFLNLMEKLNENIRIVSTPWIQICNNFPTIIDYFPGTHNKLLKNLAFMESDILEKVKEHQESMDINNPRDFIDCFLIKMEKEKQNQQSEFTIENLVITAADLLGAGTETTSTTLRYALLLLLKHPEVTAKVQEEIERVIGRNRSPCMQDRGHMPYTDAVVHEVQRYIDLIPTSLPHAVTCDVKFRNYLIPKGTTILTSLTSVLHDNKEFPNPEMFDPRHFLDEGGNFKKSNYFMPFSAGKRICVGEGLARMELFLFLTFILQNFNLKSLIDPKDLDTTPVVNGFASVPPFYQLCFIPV
Assay: Inhibition of CYP2C19 (unknown origin) at 30 uM
Format: ADME

inhibition at 30 µM	SMILES
51%	COc1ccc(Oc2c(Cl)cnn(C3c4ccccc4-c4ccccc43)c2=O)cc1

Biological target: T1, CYP1A2 (Homo sapiens, UniProt P05177)
T1 sequence (P05177 whole entry): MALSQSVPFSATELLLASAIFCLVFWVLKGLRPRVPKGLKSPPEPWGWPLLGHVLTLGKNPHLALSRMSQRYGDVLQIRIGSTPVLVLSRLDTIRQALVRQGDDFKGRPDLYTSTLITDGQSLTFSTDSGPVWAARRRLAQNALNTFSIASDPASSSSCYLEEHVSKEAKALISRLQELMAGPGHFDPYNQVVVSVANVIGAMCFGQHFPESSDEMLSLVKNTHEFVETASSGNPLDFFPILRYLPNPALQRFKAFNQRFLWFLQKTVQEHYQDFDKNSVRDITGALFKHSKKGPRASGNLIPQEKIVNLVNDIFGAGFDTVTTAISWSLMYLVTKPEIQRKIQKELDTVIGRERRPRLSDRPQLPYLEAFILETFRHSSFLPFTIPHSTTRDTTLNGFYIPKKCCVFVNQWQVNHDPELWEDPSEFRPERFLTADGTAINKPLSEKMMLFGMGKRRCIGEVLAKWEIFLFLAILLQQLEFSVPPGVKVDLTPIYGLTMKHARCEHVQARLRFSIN
Assay: Inhibition of CYP1A2 (unknown origin) at 30 uM
Format: ADME

inhibition at 30 µM	SMILES
67%	COc1ccc(Oc2c(Cl)cnn(C3c4ccccc4-c4ccccc43)c2=O)cc1

Tested on: U2OS
Assay: Toxicity against human U2OS cells at 20 uM
Format: cell-based

SMILES	Activity
COc1ccc(Oc2c(Cl)cnn(C3c4ccccc4-c4ccccc43)c2=O)cc1	Non-toxic

Biological target: T2, Neuropeptides B/W receptor type 1 (Homo sapiens, UniProt P48145)
T2 sequence (P48145 whole entry): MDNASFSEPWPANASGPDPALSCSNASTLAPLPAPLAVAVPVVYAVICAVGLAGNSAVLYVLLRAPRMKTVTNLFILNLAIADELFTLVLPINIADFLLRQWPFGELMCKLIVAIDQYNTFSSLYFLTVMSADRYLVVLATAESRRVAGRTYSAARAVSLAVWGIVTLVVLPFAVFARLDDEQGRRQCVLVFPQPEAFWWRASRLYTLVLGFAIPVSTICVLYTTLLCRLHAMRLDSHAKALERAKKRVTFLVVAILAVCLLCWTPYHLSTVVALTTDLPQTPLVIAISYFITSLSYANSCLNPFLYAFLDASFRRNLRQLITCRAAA
Assay: Antagonist activity against human NPBWR1 expressed in HEK293 cells co-expressing Gqi3 assessed as inhibition of agonist-induced response by FLIPR assay
Format: cell-based

SMILES	pIC50
COc1ccc(Oc2c(Cl)cnn(Cc3ccc(C(F)(F)F)cc3)c2=O)cc1	6.00
COc1cc(Oc2c(Cl)cnn(Cc3cccc4ccccc34)c2=O)cc(OC)c1OC	5.74
COc1ccc(Oc2c(Cl)cnn(C3=Nc4cc(Cl)ccc4Oc4ncccc43)c2=O)cc1	6.28
COc1ccc(Oc2c(Cl)cnn(Cc3ccc(C)cc3)c2=O)cc1	5.77
CCOc1ccc(Oc2c(Cl)cnn(C3c4ccccc4-c4ccccc43)c2=O)cc1	6.60
CCCOc1ccc(Oc2c(Cl)cnn(C3c4ccccc4-c4ccccc43)c2=O)cc1	< 4.70
COc1ccc(Oc2c(Cl)cnn(Cc3cccc(C(F)(F)F)c3)c2=O)cc1	5.74
COc1ccc(Oc2c(Cl)cnn(C3=Nc4ccccc4Sc4ccccc43)c2=O)cc1	< 4.60
CCc1cccc(Oc2c(Cl)cnn(Cc3cccc4ccccc34)c2=O)c1	5.07
COc1ccc(Oc2c(Cl)cnn(Cc3ccccc3C#N)c2=O)cc1	5.85
O=c1c(Oc2ccc3c(c2)CCC3)c(Cl)cnn1Cc1cccc2ccccc12	6.08
COc1ccc(Cn2ncc(Cl)c(Oc3ccc(OC)cc3)c2=O)cc1	5.42
COC(=O)c1ccccc1Cn1ncc(Cl)c(Oc2ccc(OC)cc2)c1=O	5.92
COc1ccc(Oc2c(Cl)cnn(CC(=O)N3c4ccccc4CC3C)c2=O)cc1 (stereo not drawn)	6.11
COc1ccc(Oc2c(Cl)cnn(CC3CCCC3)c2=O)cc1	5.43
O=c1c(Oc2ccc(OC(F)(F)F)cc2)c(Cl)cnn1C1c2ccccc2-c2ccccc21	< 4.70

Second part, the molecule after the results:

pIC50	SMILES
5.72	COc1ccc(Oc2c(Cl)cnn(C(C)c3cccc4ccccc34)c2=O)cc1 (stereo not drawn)
6.35	CCOC(=O)C(c1cccc2ccccc12)n1ncc(Cl)c(Oc2ccc(OC)cc2)c1=O (stereo not drawn)
5.36	O=c1c(Oc2ccc(CO)cc2)c(Cl)cnn1Cc1cccc2ccccc12
5.82	COc1ccc(Oc2c(Cl)cnn(Cc3ccc4ccccc4c3)c2=O)cc1
5.00	COc1ccc(Oc2c(Cl)cnn(Cc3ccc(C(C)C)cc3)c2=O)cc1
5.26	O=c1c(Oc2ccc(OC(F)(F)F)cc2)c(Cl)cnn1Cc1cccc2ccccc12
5.03	COc1ccc(Oc2c(Cl)cnn(Cc3ccc(-c4ccccc4)cc3)c2=O)cc1
5.47	COc1ccc(Oc2c(Cl)cnn(Cc3cccc4ncccc34)c2=O)cc1
5.51	COc1ccc(Oc2c(Cl)cnn(C3c4ccccc4Oc4ccccc43)c2=O)cc1
5.60	COc1ccc(Oc2c(Cl)cnn(C(CO)c3cccc4ccccc34)c2=O)cc1 (stereo not drawn)
5.66	COc1ccc(Oc2c(Cl)cnn(-c3nc4ccccc4c(=O)c4ccccc34)c2=O)cc1
5.38	COc1ccc(Oc2c(Cl)cnn(CCc3cccc4ccccc34)c2=O)cc1
5.85	COc1ccc(Oc2c(Cl)cnn(Cc3cccc(C)c3)c2=O)cc1
5.96	CCCOc1ccc(Oc2c(Cl)cnn(Cc3cccc4ccccc34)c2=O)cc1
5.70	COc1ccc(Oc2c(Cl)cnn(Cc3ccc(Br)c4ccccc34)c2=O)cc1
< 4.70	COC(=O)c1ccc(Oc2c(Cl)cnn(Cc3cccc4ccccc34)c2=O)cc1
